Each structure is given as a SMILES string.

The target of this assay is T1, BA/F3-FLT3-ITD + D835Y cells (Homo sapiens, UniProt P36888, D835Y, cells depend on it, form not given).
T1 sequence (P36888 1-993 D835Y): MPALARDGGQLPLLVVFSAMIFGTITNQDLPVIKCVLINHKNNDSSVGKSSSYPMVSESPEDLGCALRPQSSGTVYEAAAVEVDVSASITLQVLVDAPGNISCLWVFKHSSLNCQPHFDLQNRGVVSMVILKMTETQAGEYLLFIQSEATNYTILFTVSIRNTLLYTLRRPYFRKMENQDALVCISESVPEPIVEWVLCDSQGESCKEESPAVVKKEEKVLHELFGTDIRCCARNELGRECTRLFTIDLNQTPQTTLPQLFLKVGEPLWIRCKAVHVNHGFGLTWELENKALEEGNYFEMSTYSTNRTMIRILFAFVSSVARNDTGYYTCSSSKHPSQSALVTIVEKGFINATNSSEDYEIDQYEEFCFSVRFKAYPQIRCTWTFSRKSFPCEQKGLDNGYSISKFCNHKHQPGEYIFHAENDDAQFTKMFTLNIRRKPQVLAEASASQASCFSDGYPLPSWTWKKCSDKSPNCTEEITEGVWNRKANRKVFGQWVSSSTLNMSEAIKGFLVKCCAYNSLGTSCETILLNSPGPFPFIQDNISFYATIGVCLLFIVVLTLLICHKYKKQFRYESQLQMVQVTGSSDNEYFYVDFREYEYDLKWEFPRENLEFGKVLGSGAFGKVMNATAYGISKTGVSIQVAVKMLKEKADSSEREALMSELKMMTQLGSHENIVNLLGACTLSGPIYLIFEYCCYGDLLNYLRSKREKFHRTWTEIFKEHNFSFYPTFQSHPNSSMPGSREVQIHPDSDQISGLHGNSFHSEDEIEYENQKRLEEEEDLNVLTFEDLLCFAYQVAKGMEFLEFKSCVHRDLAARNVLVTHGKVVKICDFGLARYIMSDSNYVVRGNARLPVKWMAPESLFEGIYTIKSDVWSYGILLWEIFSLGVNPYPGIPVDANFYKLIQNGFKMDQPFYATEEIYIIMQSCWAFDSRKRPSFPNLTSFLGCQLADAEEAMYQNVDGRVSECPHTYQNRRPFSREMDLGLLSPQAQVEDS
The assay can be described thus: Cell proliferation assay (CellTiter-Glo), engineered BA/F3 cells. Type of assay: cell-based, murine. To be noted: BaF3 FLT3 ITD/D835Y cells, 3d-Growth; read-out: BaF3_FLT3 ITD/D835Y 3d-Growth: IC50. The method, boiled down:
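Three-day growth at 37 °C, 5% CO2 under compound (1 μM top final, 1:3 dilutions, eight points, 0.2% DMSO), read as ATP luminescence by CellTiter-Glo for IC50. Cells: MOLM-14 with FLT3 ITD plus D835Y or F691L, and IL-3-deprived Ba/F3 transfected with FLT3 ITD/D835Y, 1×10^4 per well.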
For orientation: Cellular ATP, detected with luciferase, serves as a proxy for viable cell number.
For `CONC(=O)c1cccc(-c2cnc3[nH]c(-c4ccccc4)cc3c2)c1` [Compound P-0003, N-methoxy-3-(2-phenyl-1H-pyrrolo[2,3-b]pyridin-5-yl)benzamide], the GI50 lay in the range of 0.0001 to 10 µM.

For the molecule `C#Cc1cc2cc(-c3cccc(S(=O)(=O)NC4CC4)c3)cnc2[nH]1` [Compound P-0004, N-cyclopropyl-3-(2-ethynyl-1H-pyrrolo[2,3-b]pyridin-5-yl)benzenesulfonamide], the GI50 is 0.0001 to 10 µM.

Take `NC(=O)Nc1ccc(-c2cnc3[nH]c(-c4ccccc4)cc3c2)cc1` [Compound P-0005, [4-(2-phenyl-1H-pyrrolo[2,3-b]pyridin-5-yl)phenyl]urea]: the GI50 lay within 0.0001 to 10 µM.

For the molecule `CNC(=O)Nc1ccc(-c2cnc3[nH]c(-c4ccccc4)cc3c2)cc1` [Compound P-0006, 1-methyl-3-[4-(2-phenyl-1H-pyrrolo[2,3-b]pyridin-5-yl)phenyl]urea], the GI50 fell in the range of 0.0001 to 10 µM.

Consider `CN(C)S(=O)(=O)Nc1cccc(-c2cnc3[nH]c(-c4ccccc4)cc3c2)c1` [Compound P-0007, 5-[3-(dimethylsulfamoylamino)phenyl]-2-phenyl-1H-pyrrolo[2,3-b]pyridine], for which the GI50 lay within 0.0001 to 10 µM.

For `O=S(=O)(NC1CC1)c1cccc(-c2cnc3[nH]c(C#CCO)cc3c2)c1` [Compound P-0008, N-cyclopropyl-3-[2-(3-hydroxyprop-1-ynyl)-1H-pyrrolo[2,3-b]pyridin-5-yl]benzenesulfonamide], the GI50 was in the range of 0.0001 to 10 µM.

Turning to `CN(C)CC#Cc1cc2cc(-c3cccc(S(=O)(=O)NC4CC4)c3)cnc2[nH]1` [Compound P-0009, N-cyclopropyl-3-[2-[3-(dimethylamino)prop-1-ynyl]-1H-pyrrolo[2,3-b]pyridin-5-yl]benzenesulfonamide], the GI50 was 0.0001 to 10 µM.

For the molecule `O=S(=O)(NC1CC1)c1cccc(-c2cnc3[nH]c(C#CC4CCCCC4)cc3c2)c1` [Compound P-0010, 3-[2-(2-cyclohexylethynyl)-1H-pyrrolo[2,3-b]pyridin-5-yl]-N-cyclopropyl-benzenesulfonamide], the GI50 was 0.0001 to 10 µM.

As for `CC(C)(C)OC(=O)NC1CCN(C(=O)c2n[nH]c3ccc(-c4cnc5[nH]c(-c6ccccc6)cc5c4)cc23)CC1` [Compound P-0011, tert-butyl N-[1-[5-(2-phenyl-1H-pyrrolo[2,3-b]pyridin-5-yl)-1H-indazole-3-carbonyl]-4-piperidyl]carbamate], the GI50 is 0.0001 to 10 µM.

Take `NC1CCN(C(=O)c2n[nH]c3ccc(-c4cnc5[nH]c(-c6ccccc6)cc5c4)cc23)CC1` [Compound P-0012, (4-amino-1-piperidyl)-[5-(2-phenyl-1H-pyrrolo[2,3-b]pyridin-5-yl)-1H-indazol-3-yl]methanone]: the GI50 fell in the range of 0.0001 to 10 µM.

Regarding `NC1CCN(C(=O)c2cccc(-c3cnc4[nH]c(-c5ccccc5)cc4c3)n2)CC1` [Compound P-0013, (4-amino-1-piperidyl)-[6-(2-phenyl-1H-pyrrolo[2,3-b]pyridin-5-yl)-2-pyridyl]methanone], the GI50 lay in the range of 0.0001 to 10 µM.

Take `O=S(=O)(NC1CC1)c1cccc(-c2cnc3[nH]c(C#Cc4ccccc4)cc3c2)c1` [Compound P-0014, N-cyclopropyl-3-[2-(2-phenylethynyl)-1H-pyrrolo[2,3-b]pyridin-5-yl]benzenesulfonamide]: the GI50 was in the range of 0.0001 to 10 µM.

For the molecule `N[C@H]1CCN(C(=O)c2cccc(-c3cnc4[nH]c(-c5ccccc5)cc4c3)n2)C1` [Compound P-0015, [(3S)-3-aminopyrrolidin-1-yl]-[6-(2-phenyl-1H-pyrrolo[2,3-b]pyridin-5-yl)-2-pyridyl]methanone], the GI50 lay within 0.0001 to 10 µM.

As to `N[C@H]1CCN(C(=O)c2n[nH]c3ccc(-c4cnc5[nH]c(-c6ccccc6)cc5c4)cc23)C1` [Compound P-0016, [(3S)-3-aminopyrrolidin-1-yl]-[5-(2-phenyl-1H-pyrrolo[2,3-b]pyridin-5-yl)-1H-indazol-3-yl]methanone], the GI50 lay within 0.0001 to 10 µM.

Turning to `CC(C)(C)OC(=O)NC1CCN(C(=O)c2cccc(-c3cnc4[nH]c(-c5ccccc5)cc4c3)n2)CC1` [Compound P-0017, tert-butyl N-[1-[6-(2-phenyl-1H-pyrrolo[2,3-b]pyridin-5-yl)pyridine-2-carbonyl]-4-piperidyl]carbamate], the GI50 is 0.0001 to 10 µM.

With `NC1CCC(NC(=O)c2cccc(-c3cnc4[nH]c(-c5ccccc5)cc4c3)n2)CC1` (centres unmarked) [Compound P-0018, N-(4-aminocyclohexyl)-6-(2-phenyl-1H-pyrrolo[2,3-b]pyridin-5-yl)pyridine-2-carboxamide], the GI50 was 0.0001 to 10 µM.

Regarding `CC(=O)NC1CCN(C(=O)c2cccc(-c3cnc4[nH]c(-c5ccccc5)cc4c3)n2)CC1` [Compound P-0020, N-[1-[6-(2-phenyl-1H-pyrrolo[2,3-b]pyridin-5-yl)pyridine-2-carbonyl]-4-piperidyl]acetamide], the GI50 lay within 0.0001 to 10 µM.

Regarding `CC(=O)NC1CCN(C(=O)c2n[nH]c3ccc(-c4cnc5[nH]c(-c6ccccc6)cc5c4)cc23)CC1` [Compound P-0021, N-[1-[5-(2-phenyl-1H-pyrrolo[2,3-b]pyridin-5-yl)-1H-indazole-3-carbonyl]-4-piperidyl]acetamide], the GI50 lay in the range of 0.0001 to 10 µM.

Turning to `CN1CCC(NC(=O)c2n[nH]c3ccc(-c4cnc5[nH]c(-c6ccccc6)cc5c4)cc23)CC1` [Compound P-0022, N-(1-methyl-4-piperidyl)-5-(2-phenyl-1H-pyrrolo[2,3-b]pyridin-5-yl)-1H-indazole-3-carboxamide], the GI50 lay in the range of 0.0001 to 10 µM.

Consider `O=C(c1cccc(-c2cnc3[nH]c(-c4ccccc4)cc3c2)n1)N1CCC(CO)CC1` [Compound P-0023, [4-(hydroxymethyl)-1-piperidyl]-[6-(2-phenyl-1H-pyrrolo[2,3-b]pyridin-5-yl)-2-pyridyl]methanone], for which the GI50 was in the range of 0.0001 to 10 µM.

Take `CCOC(=O)C1CCN(C(=O)c2cccc(-c3cnc4[nH]c(-c5ccccc5)cc4c3)n2)CC1` [Compound P-0025, ethyl 1-[6-(2-phenyl-1H-pyrrolo[2,3-b]pyridin-5-yl)pyridine-2-carbonyl]piperidine-4-carboxylate]: the GI50 fell in the range of 0.0001 to 10 µM.

Regarding `NCC1CCN(C(=O)c2cccc(-c3cnc4[nH]c(-c5ccccc5)cc4c3)n2)CC1` [Compound P-0026, [4-(aminomethyl)-1-piperidyl]-[6-(2-phenyl-1H-pyrrolo[2,3-b]pyridin-5-yl)-2-pyridyl]methanone], the GI50 lay within 0.0001 to 10 µM.

For `CC1CCN(C(=O)c2n[nH]c3ccc(-c4cnc5[nH]c(-c6ccccc6)cc5c4)cc23)CC1` [Compound P-0027, (4-methyl-1-piperidyl)-[5-(2-phenyl-1H-pyrrolo[2,3-b]pyridin-5-yl)-1H-indazol-3-yl]methanone], the GI50 lay within 0.0001 to 10 µM.

Take `CNC1CCN(C(=O)c2n[nH]c3ccc(-c4cnc5[nH]c(-c6ccccc6)cc5c4)cc23)C1` (centres unmarked) [Compound P-0028, [3-(methylamino)pyrrolidin-1-yl]-[5-(2-phenyl-1H-pyrrolo[2,3-b]pyridin-5-yl)-1H-indazol-3-yl]methanone]: the GI50 was in the range of 0.0001 to 10 µM.

Turning to `CNC1CCN(C(=O)c2cccc(-c3cnc4[nH]c(-c5ccccc5)cc4c3)n2)C1` (centres unmarked) [Compound P-0040, [3-(methylamino)pyrrolidin-1-yl]-[6-(2-phenyl-1H-pyrrolo[2,3-b]pyridin-5-yl)-2-pyridyl]methanone], the GI50 fell in the range of 0.0001 to 10 µM.

For `CNC1CCN(C(=O)c2cccc(-c3cnc4[nH]c(-c5cn(C)nc5C)cc4c3)n2)C1` (centres unmarked) [Compound P-0049, [6-[2-(1,3-dimethylpyrazol-4-yl)-1H-pyrrolo[2,3-b]pyridin-5-yl]-2-pyridyl]-[3-(methylamino)pyrrolidin-1-yl]methanone], the GI50 lay in the range of 0.0001 to 10 µM.

For `c1ccc(-c2cc3cc(-c4cccc(OC5CCNCC5)n4)cnc3[nH]2)cc1` [Compound P-0050, 2-phenyl-5-[6-(4-piperidyloxy)-2-pyridyl]-1H-pyrrolo[2,3-b]pyridine], the GI50 lay in the range of 0.0001 to 10 µM.

Take `CNC1CN(C(=O)c2cccc(-c3cnc4[nH]c(-c5ccccc5)cc4c3)n2)C1` [Compound P-0052, [3-(methylamino)azetidin-1-yl]-[6-(2-phenyl-1H-pyrrolo[2,3-b]pyridin-5-yl)-2-pyridyl]methanone]: the GI50 was 0.0001 to 10 µM.

Take `N[C@H]1CCN(C(=O)c2ncc(-c3cnc4[nH]c(-c5ccccc5)cc4c3)s2)C1` [Compound P-0054, [(3S)-3-aminopyrrolidin-1-yl]-[5-(2-phenyl-1H-pyrrolo[2,3-b]pyridin-5-yl)thiazol-2-yl]methanone]: the GI50 lay within 0.0001 to 10 µM.
